A word on the inhibition: it is the drop in the measured response relative to a control, in per cent.

Assay [1] concerns B. anthracis ΔSterne. Put plainly: microbe, parasite or virus in culture. In kind it is cell-based. The note with it: Bacillus anthracis; Conc. 3 μM; read-out: Inhibitive activity Anthracis (% inhibition of growth).
Assay [2] relates to Staphylococcus aureus MRSA. Put plainly: microbe, parasite or virus in culture. The note with it: Conc. 3 μM, read-out: Inhibitive activity MRSA (% inhibition of growth). The class given is cell-based.

Regarding `O=C(O)C(Cc1ccccc1)N1C(=O)/C(=C\c2ccc(-c3ccc(Br)cc3)s2)NC1=S` (centres unmarked) [EX. 7, 2-(4-((5-(4-Bromophenyl)thiophen-2-yl)methylene)-5-oxo-2-thioxoimidazolidin-1-yl)-3-phenylpropanoic acid], the inhibition at 3 µM in assay [1] was 67.9%.

Take `O=C(O)C(Cc1ccccc1)N1C(=O)/C(=C\c2ccc(-c3ccc(Cl)c(Cl)c3)o2)NC1=S` (centres unmarked) [EX. 6, 2-(4-((5-(3,4-Dichlorophenyl)furan-2-yl)methylene)-5-oxo-2-thioxoimidazolidin-1-yl)-3-phenylpropanoic acid]: the inhibition at 3 µM in assay [2] was -3.72%.
